Source: US20210252015A1, “CERTAIN (2S)-N-[(1S)-1-CYANO-2-PHENYLETHYL]-1,4-OXAZEPANE-2-CARBOXAMIDES FOR TREATING INFLAMMATORY BOWEL DISEASE” (Insmed Incorporated, priority 2018, published 2021)

Tests used:
[1] = system: colitis induced by the adoptive transfer of sorted naïve T cells into RAG2−/− mice; assay: Adoptive T-Cell Transfer Colitis Model, Example 2 (survival, endoscopy, stool consistency, body weight); type: in vivo
Method: The efficacy of INS1007 in the treatment of colitis induced by the adoptive transfer of sorted naïve T cells into RAG2^−/− mice (“Adoptive T-Cell Transfer Colitis Model”) was evaluated. The Adoptive T-Cell Transfer Colitis Model is an immunological animal model of colitis that provides focused and detailed examination of T cell-mediated pathological mechanisms, and generally responds well to established clinical therapies such as anti-TNFα. The model is described in detail in D. V. Ostanin, et al., T cell transfer model of chronic colitis: concepts, considerations, and tricks of the trade. Am. J. Physiol. Gastrointest. Liver Physiol. 2009; 296(2): G135-46, which is hereby incorporated by reference in its entirety for all purposes.
Example 2 evaluated the effectiveness of INS1007 dosed at 0.3 mg/kg, 1.0 mg/kg, 3.0 mg/kg and 10 mg/kg in the Adoptive T-Cell Transfer Colitis Model. Vehicle (negative control) and an anti-p40 mAb antibody (positive control) were also evaluated.
Mice: Ninety-five (95) male RAG2^−/− mice (n=95) with an average starting body weight (±SEM) of 21.3±0.12 g were obtained from Taconic Biosciences (Germantown, N.Y.). Animals were acclimatized prior to study commencement. During this period, the animals were observed daily in order to reject any that presented in poor condition. Animals were fed with 5053 sterile rodent diet and water was provided ad libitum.
INS1007 Solutions: INS1007 was diluted with 0.5% Hydroxypropylmethylcellulose in Citrate buffer w/0.1% Tween 80 (pH 3.0). Solutions were stored at 4° C. INS1007 solutions were discarded after 3 days and fresh solutions were prepared.
Anti-p40 mAb solution: Anti-mouse IL-12 p40 (Clone: C17.8) obtained from BioXCell (Cat #: BE0051) was diluted with phosphate buffered saline. Solutions were stored at 4° C. Anti-mouse IL-12 p40 solutions were discarded after 7 days and fresh solutions were prepared.
Groups 1-2 were negative controls; groups 3-6 were treated with INS 1007 and Group 7 was treated with Anti-p40 mAb.
The study included two phases: a T-cell transfer colitis-induction period (T-cell engraftment in FIG. 14) and a treatment period (Veh/1007 TX in FIG. 14). Colitis was induced on Day 0 in 90 RAG2^−/− mice by IP injection (200 μL) of 0.5×10^6 CD44^−/CD62L^+ T-cells (in PBS) isolated and purified from C57Bl/6 […]. Donor cells were processed as follows. Whole spleens were excised from donor C57BL/6 mice and were immediately placed ice-cold PBS. The spleens were dissociated to yield a single cell suspension and the red blood cells were lysed. Spleens were then processed for CD4+ enrichment prior to CD44-CD62L^+ sorting using Miltenyi MACS columns.
Animals in Groups 1-6 were dosed via oral gavage (PO) twice daily (BID) from Days 14 to 41 with INS1007 Solution or vehicle, as indicated in Table 4. Animals in Group 7 were dosed via intraperitoneal (IP) injection once every third day (Q3D) from Day 14 to 39 with Anti-p40 mAb solution.
Animals were observed daily (weight morbidity, survival, presence of diarrhea and/or bloody stool) to assess differences among treatment groups and/or possible toxicity resulting from the treatments.
Each mouse, under isoflurane anesthesia, underwent video endoscopy on Days 14, 28, and 42 using a small animal endoscope (Karl Storz Endoskope, Germany), to assess colitis severity. During each endoscopic procedure, still images and video were recorded to evaluate the extent of colitis and the response to treatment. Colitis severity and Stool consistency were scored using the methods described in Examples 1 and 2. Following endoscopy on day 42, all animals from each treatment group were sacrificed. Following euthanasia, bone marrow (from both femurs and tibias) were collected, lysed, and then snap frozen. The frozen tissue was stored at −80° C.
Weight Loss: Weight loss calculated as a percentage of the starting weight on Day 0 was recorded in all treatment groups.

[2] = system: DSS-induced colitis in C57BL/6 mice; assay: DSS-induced colitis model, mean over animals of Examples 1A and 1B; type: in vivo; details: vs vehicle control
Method: Mean Endoscopy/Stool Consistency Scores and Mean Weight Change: The mean of the endoscopy and stool consistency scores from Days 10 and 14 observed from Examples 1A and 1B was determined to provide a mean endoscopy score and mean stool consistency score for Days 10 and 14 in the DSS-induced colitis model (i.e., mean that includes the animals from Examples 1A and 1B). FIGS. 11A and 12A show the Mean Endoscopy score. FIGS. 11B and 12B show the Mean Stool Consistency score.
The percent change in body weight on Day 14 from Examples 1A and 1B were averaged to provide mean percent body weight change for Day 14 in the DSS-induced colitis model (i.e., mean that includes the animals from Examples 1A and 1B).

[3] = Day 28, INS1007 1 mg/kg (Group 4)
[4] = Day 28, INS1007 3 mg/kg (Group 5)
[5] = Day 28, INS1007 10 mg/kg (Group 6)
[6] = Day 42, INS1007 1 mg/kg (Group 4)
[7] = Day 42, INS1007 3 mg/kg (Group 5)
[8] = Day 42, INS1007 10 mg/kg (Group 6)

## Cn1c(=O)oc2ccc(-c3ccc(C[C@@H](C#N)NC(=O)[C@@H]4CNCCCO4)cc3)cc21 [INS1007, (2S)—N-{(1S)-1-cyano-2-[4-(3-methyl-2-oxo-2,3-dihydro-1,3-benzoxazol-5-yl)phenyl]ethyl}-1,4-oxazepane-2-carboxamide]
[1]; Day 14, INS1007 3 mg/kg (Group 5)
  reduction in mean endoscopy score as compared to vehicle control (Group 2): 22.2%
[1]; [3]
  mean stool consistency score vs vehicle control (Group 2): reductions
  reduction in mean endoscopy score as compared to vehicle control (Group 2): 38.4%
[1]; [4]
  mean stool consistency score vs vehicle control (Group 2): reductions
  reduction in mean endoscopy score as compared to vehicle control (Group 2): 39.5%
[1]; [5]
  mean stool consistency score vs vehicle control (Group 2): reductions
  reduction in mean endoscopy score as compared to vehicle control (Group 2): 15.3%
[1]; [6]
  mean stool consistency score vs vehicle control (Group 2): reductions
  reduction in mean endoscopy score as compared to vehicle control (Group 2): 33.5%
[1]; [7]
  mean stool consistency score vs vehicle control (Group 2): reductions
  reduction in mean endoscopy score as compared to vehicle control (Group 2): 42.7%
[1]; [8]
  mean stool consistency score vs vehicle control (Group 2): largest reductions
  reduction in mean endoscopy score as compared to vehicle control (Group 2): 35.0%
[1]; INS1007 3 mg/kg (Group 5), Days 0 to 42
  weight loss compared to vehicle control (Group 2), body weight carried forward: reduced
[1]; INS1007 3 mg/kg (Group 5), log-rank test
  survival vs vehicle control: significantly improved
[1]; INS1007 3 mg/kg PO BID Day 14 to 41 (Group 5), Days 0 to 42, vehicle control 53.3%
  survival: 95.86%
[2]; Day 10, 0.3 mg/kg
  mean endoscopy score (Examples 1A and 1B): significantly reduced
  mean stool consistency score (Examples 1A and 1B): significantly reduced
[2]; Day 10, 3 mg/kg
  mean endoscopy score (Examples 1A and 1B): significantly reduced
[2]; Day 14, 0.3 mg/kg
  average mean endoscopy score (Examples 1A and 1B): significantly reduced
[2]; Day 14, 0.3 mg/kg, lost less weight
  average mean weight change (percent body weight change, Examples 1A and 1B): significantly reduced
[2]; Day 14, 3 mg/kg
  stool consistency score (Examples 1A and 1B): significantly reduced
